≈ marks a conversion by molar mass, not a printed value. Like-named read-outs stand apart in the source and are kept apart here. One block for each compound: values may come before it. Where a SMILES comes first, the peptide text is derived from it.
Columns and labels:
Type in all cases: cell-based
[1] = tested on: Streptococcus agalactiae ATCC 12386; test: microbe, parasite or virus in culture; conditions: ATCC 12386; read-out: MIC S. agalactiae ATCC
Method in brief: (§1)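 Broth microdilution per CLSI M07-A/M26A; peptides in DMSO, final 64-0.125 μg/mL, inoculum 5 x 10^5 CFU/mL. Bacteria in MHB ± 10% lysed horse blood ± Ca/Mg cations, yeasts in RPMI-1640 MOPS; 35°C for 20–24 h. MIC is lowest concentration without visible growth.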

[2] = tested on: Streptococcus pneumoniae ATCC 49619; test: microbe, parasite or virus in culture; conditions: ATCC 49619; read-out: MIC S. pneumoniae ATCC
Method in brief: as §1

[3] = tested on: Candida parapsilosis ATCC 22019; test: microbe, parasite or virus in culture
Method in brief: as §1

[4] = tested on: Streptococcus agalactiae Clinical isolate - animal; test: microbe, parasite or virus in culture; conditions: clinical isolate - animal
Method in brief: as §1

[5] = tested on: Candida albicans Clinical isolate - human; test: microbe, parasite or virus in culture
Method in brief: as §1

Candida krusei ATCC 6258 = test: microbe, parasite or virus in culture
Method in brief: as §1

[6] = tested on: Pseudomonas aeruginosa clinical isolate - animal; test: microbe, parasite or virus in culture; conditions: clinical isolate - animal
Method in brief: (§2)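 Broth microdilution per CLSI M07-A/M26A: DMSO-solubilized cathelicidin mature peptides at final 64-0.125μg/mL in Mueller Hinton broth (with or without 10% lysed horse blood, with or without calcium/magnesium), final inoculum 5 x 10^5 CFU/mL, 35°C for 20–24 hours. MIC = lowest concentration preventing visible growth.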

[7] = tested on: Pseudomonas aeruginosa ATCC 27853; test: microbe, parasite or virus in culture; conditions: ATCC 27853
Method in brief: as §2

[8] = tested on: Escherichia coli clinical isolate - animal; test: microbe, parasite or virus in culture; conditions: clinical isolate - animal
Method in brief: as §2

[9] = tested on: Staphylococcus aureus ATCC 29213; test: microbe, parasite or virus in culture; conditions: ATCC 29213
Method in brief: as §2

[10] = tested on: Escherichia coli ATCC 25922; test: microbe, parasite or virus in culture; conditions: ATCC 25922
Method in brief: as §2

[11] = tested on: Staphylococcus aureus clinical isolate – animal, methicillin-resistant (MRSA); conditions: clinical isolate – animal, methicillin-resistant
Method: (§3) Antimicrobial testing of 78 cathelicidin MPs was performed in two phases as outlined in Figure 1 . In phase I, 40 peptides (27 extant and 13 ancestral) were selected for testing based on rank (outlined above) and similarity to published marsupial cathelicidins with known antimicrobial activity ([33], [41]–[43]). These peptides were tested against nine bacteria (Staphylococcus aureus ATCC 29213 and clinical isolate, Escherichia coli ATCC 25922 and clinical isolate, Pseudomonas aeruginosa ATCC 27853 and clinical isolate, Streptococcus agalactiae ATCC 12386 and clinical isolate, Streptococcus pneumoniae ATCC 49619) and three fungi (Candida krusei ATCC 6258, Candida parapsilosis ATCC 22019, and Candida albicans clinical isolate). Details regarding these strains are available in Supplementary Table 4 . The antimicrobial activity of cathelicidins was determined as the minimum inhibitory concentration (MIC), which was the lowest concentration of cathelicidin that prevented visible bacterial or fungal growth, relative to the negative control. […] Minimum bactericidal concentration (MBC) and/or minimum fungicidal concentration (MFC) was conducted to determine microbicidal versus static action. Activity against S. aureus ATCC, E. coli ATCC, and Pseudomonas aeruginosa ATCC 27853 was examined in the presence of divalent cations to determine the impact of inhibitors.
(§4) Antimicrobial activity was determined using a broth microdilution susceptibility assay in 96 well polypropylene plates according to Clinical Laboratory Standards Institute guidelines M07-A and M26A as described previously ([33], [42], [43]). The bacterial and fungal isolates from humans and animals used in this study are outlined in Supplementary Table 4 . Only yeasts were included in the panel of fungi as they have been used in the susceptibility testing of eutherian ([3], [81]–[83]) and other marsupial cathelicidins previously ([33], [42], [43]). Cathelicidin mature peptides were solubilized in DMSO and serially diluted in duplicate from 128-0.25μg/mL in a final volume of 100µL. For bacteria, cathelicidins were diluted in Mueller Hinton Broth (MHB) with or without 10% lysed horse blood, and with (MH II B) or without (MHB) calcium and magnesium cations. For fungi, cathelicidins were diluted in Roswell Park Memorial Institute medium (RPMI)-1640 MOPS. Ampicillin or tetracycline were included as a positive control for Gram-positive and -negative bacteria respectively, while amphotericin B was used for fungi. A media-only negative control and growth control (no cathelicidin) were also included on each plate. Bacteria were sub-cultured on Muller Hinton agar (MHA) or sheep blood agar (BA), and fungi on Sabouraud dextrose agar (SAB), 20–24 hours prior to the test. Colonies were suspended in saline, the concentration adjusted to a 0.5 McFarland standard, and then diluted in media to a concentration of 1.0 x 10^6 cells/mL. Then, 100μL was added to each well of the cathelicidin dilution plate, giving a final inoculum density of 5 x 10^5 CFU/mL and cathelicidin concentration of 64-0.125μg/mL. Colony counts were performed on MHA/BA/SAB to confirm inoculum density. All plates were incubated at 35°C for 20–24 hours, depending on the strain.
(§5) Colonies were counted and compared to the colony count of the starting inoculum.

[12] = tested on: Staphylococcus aureus clinical isolate – animal, penicillin-resistant (PRSA); conditions: clinical isolate – animal, penicillin-resistant (PRSA)
Method: as §3, §4, §5

[13] = tested on: Staphylococcus aureus clinical isolate - animal; test: microbe, parasite or virus in culture; conditions: clinical isolate - animal; read-out: MIC S. aureus
Method in brief: as §2

[14] = ATCC 22019, read-out: MIC C. parapsilosis ATCC
[15] = read-out: MIC P. aeruginosa ATCC

MIC [1]: >17.9 µM
MIC [2]: >17.9 µM
MIC [3, 14]: 13.5 µM
MIC S. agalactiae [4]: 8.9 µM (≈ 31.8 µg/mL)
MIC C. albicans ([5]; Clinical isolate - human): 27.1 µM (≈ 96.8 µg/mL)
MIC C. krusei ATCC (Candida krusei ATCC 6258; ATCC 6258): 13.5 µM (≈ 48.2 µg/mL)
MIC ([6]; read-out: MIC P. aeruginosa): 8.9 µM (≈ 31.8 µg/mL)
MIC ([6]; read-out: MIC in the presence of cations P. aeruginosa): 17.9 µM
MIC [7, 15]: >17.9 µM
MIC [8]: 8.9 µM (≈ 31.8 µg/mL)
MIC in the presence of cations E. coli [8]: 8.9 µM
MIC ([9]; read-out: MIC S. aureus ATCC): 4.4 µM (≈ 15.7 µg/mL)
MIC ([9]; read-out: MIC in the presence of cations S. aureus ATCC): 4.4 µM
MIC ([10]; read-out: MIC E. coli ATCC): 4.4 µM (≈ 15.7 µg/mL)
MIC ([10]; read-out: MIC in the presence of cations E. coli ATCC): 4.4 µM
MIC MRSA [11]: 4.4 µM (≈ 15.7 µg/mL)
MIC PRSA [12]: 4.4 µM (≈ 15.7 µg/mL)
SMILES: CC[C@H](C)[C@H](NC(=O)CNC(=O)[C@H](C)NC(=O)[C@H](CC(C)C)NC(=O)[C@@H](NC(=O)[C@H](CCCNC(=N)N)NC(=O)[C@@H](NC(=O)[C@H](CCCNC(=N)N)NC(=O)[C@@H](N)CCCCN)[C@@H](C)CC)[C@@H](C)CC)C(=O)N[C@@H](Cc1c[nH]c2ccccc12)C(=O)N[C@@H](CC(=O)O)C(=O)N[C@@H](CCCNC(=N)N)C(=O)N[C@@H](CC(C)C)C(=O)N[C@@H](CCCCN)C(=O)N[C@@H](CC(N)=O)C(=O)N[C@@H](CC(C)C)C(=O)NCC(=O)N[C@@H](CC(N)=O)C(=O)N[C@@H](CCCNC(=N)N)C(=O)N[C@H](C(=O)N[C@@H](CCCCN)C(=O)N[C@@H](CC(N)=O)C(=O)N[C@@H](CCCNC(=N)N)C(=O)N[C@@H](CC(C)C)C(=O)N[C@@H](CCCNC(=N)N)C(=O)N[C@@H](CC(=O)O)C(=O)N[C@@H](Cc1ccccc1)C(=O)N[C@@H](Cc1ccccc1)C(=O)N[C@@H](CO)C(=O)O)[C@@H](C)CC [AnstCath5] (H-KRIRILAGIWDRLKNLGNRIKNRLRDFFS-OH)
MFC C. parapsilosis ATCC ([3]; ATCC 22019): > 27.1 µM
MBC S. agalactiae [4]: 8.9 µM (≈ 31.8 µg/mL)
MFC C. albicans ([5]; Clinical isolate - human): > 27.1 µM
MFC C. krusei ATCC (Candida krusei ATCC 6258; ATCC 6258): 13.5 µM (≈ 48.2 µg/mL)
MBC P. aeruginosa [6]: 17.9 µM (≈ 63.9 µg/mL)
MBC E. coli [8]: 17.9 µM (≈ 63.9 µg/mL)
MBC S. aureus ATCC [9]: 8.9 µM (≈ 31.8 µg/mL)
MBC E. coli ATCC [10]: 8.9 µM (≈ 31.8 µg/mL)
MBC MRSA [11]: 8.9 µM (≈ 31.8 µg/mL)
MBC PRSA [12]: 4.4 µM (≈ 15.7 µg/mL)

SMILES: CC[C@H](C)[C@H](NC(=O)[C@H](CCCCN)NC(=O)[C@H](Cc1ccccc1)NC(=O)[C@H](CC(N)=O)NC(=O)[C@H](CCCCN)NC(=O)[C@H](CC(C)C)NC(=O)[C@H](CCCNC(=N)N)NC(=O)[C@H](CCCCN)NC(=O)[C@H](CCCCN)NC(=O)[C@@H](NC(=O)[C@H](CCC(=O)O)NC(=O)[C@H](CC(=O)O)NC(=O)CNC(=O)[C@H](Cc1ccccc1)NC(=O)[C@H](CCCCN)NC(=O)[C@H](CCCCN)NC(=O)[C@H](CC(C)C)NC(=O)[C@H](CCCCN)NC(=O)[C@H](CCCCN)NC(=O)[C@H](CCCCN)NC(=O)[C@H](CC(C)C)NC(=O)[C@H](Cc1c[nH]c2ccccc12)NC(=O)[C@H](CCCNC(=N)N)NC(=O)[C@H](Cc1ccccc1)NC(=O)CNC(=O)CNC(=O)[C@H](CCCNC(=N)N)NC(=O)[C@@H](N)CCCCN)[C@@H](C)CC)C(=O)NCC(=O)N[C@@H](Cc1ccccc1)C(=O)N[C@@H](CC(C)C)C(=O)N[C@H](C(=O)N1CCC[C@H]1C(=O)N[C@@H](CC(C)C)C(=O)O)[C@@H](C)CC [MAP13] (H-KRGGFRWLKKKLKKFGDEIKKRLKNFKIGFLIPL-OH)
MIC [1]: >15.4 µM
MIC [2]: >15.4 µM
MFC C. parapsilosis ATCC ([3]; ATCC 22019): > 15.4 µM
MIC [3, 14]: 7.7 µM
MIC ([4]; read-out: MIC S. agalactiae): >15.4 µM
MIC ([5]; Clinical isolate - human, read-out: MIC C. albicans): >15.4 µM
MIC (Candida krusei ATCC 6258; ATCC 6258, read-out: MIC C. krusei ATCC): >15.4 µM
MBC P. aeruginosa [6]: 15.4 (15.4)^15.4 µM
MIC P. aeruginosa [6]: 15.4 (15.4)^15.4 µM
MIC in the presence of cations P. aeruginosa [6]: 15.4 (15.4)^15.4 µM
MBC P. aeruginosa ATCC [7]: 15.4 µM (≈ 63.6 µg/mL)
MIC [7, 15]: 7.7 µM (≈ 31.8 µg/mL)
MIC ([7]; read-out: MIC in the presence of cations P. aeruginosa ATCC): 15.4 µM
MBC E. coli [8]: 7.7 (7.7)^7.7 µM
MIC E. coli [8]: 7.7 (7.7)^7.7 µM
MIC in the presence of cations E. coli [8]: 7.7 (7.7)^7.7 µM
MIC [13]: >15.4 µM
MIC ([9]; read-out: MIC S. aureus ATCC): >15.4 µM
MBC E. coli ATCC [10]: 7.7 (7.7)^7.7 µM
MIC E. coli ATCC [10]: 7.7 (7.7)^7.7 µM
MIC in the presence of cations E. coli ATCC [10]: 7.7 (7.7)^7.7 µM

MIC ([3]; Lodderomyces parapsilosis, ATCC22019, RPMI-1640 MOPS, 5 x 10^5 CFU/mL, 35°C 20–24 hours, duplicate): 0.5 µg/mL
MIC ([3]; Lodderomyces parapsilosis, ATCC22019, µM version of Table 4, read-out: MIC C. parapsilosis ATCC): 0.5 µM
MIC ([5]; Candida albicans, clinical isolate, RPMI-1640 MOPS, 5 x 10^5 CFU/mL, 35°C 20–24 hours, duplicate): 0.5 µg/mL
MIC ([5]; Candida albicans, clinical isolate, µM version of Table 4, read-out: MIC C. albicans): 0.5 µM
MIC (Candida krusei ATCC 6258; Pichia kudriavzevii, ATCC6258, RPMI-1640 MOPS, 5 x 10^5 CFU/mL, 35°C 20–24 hours, duplicate): 1 µg/mL
MIC (Candida krusei ATCC 6258; Pichia kudriavzevii, ATCC6258, µM version of Table 4, read-out: MIC C. krusei ATCC): 1 µM
SMILES: C[C@@H]1[C@H](O)[C@@H](C)/C=C/C=C/C=C/C=C/C=C/C=C/C=C/[C@H](O[C@@H]2O[C@H](C)[C@@H](O)[C@H](N)[C@@H]2O)C[C@@H]2O[C@](O)(C[C@@H](O)C[C@@H](O)[C@H](O)CC[C@@H](O)C[C@@H](O)CC(=O)O[C@H]1C)C[C@H](O)[C@H]2C(=O)O [Amphotericin B, reference compound]

Reference: article PMC12006171, “Marsupial cathelicidins: characterization, antimicrobial activity and evolution in this unique mammalian lineage” (Frontiers in Immunology, 2025)
